Source: publication PMC11096368, “Transcriptomic signature, bioactivity and safety of a non-hepatotoxic analgesic generating AM404 in the midbrain PAG region” (Scientific Reports, 2024)
Values joined by “and” are separate entries in the source; they are usually repeats but may differ in a detail not shown here. Equal values may be shown once. Read-outs that look alike come from different tables or passages of the source.

Assay: Phase 1 single ascending dose (SAD) pharmacokinetics incl. food effect
Assay type: in vivo, human
Details: for Tmax (h) / Tmax: N 6; for AUC(0-t) / AUC(0-inf) / Cmax / half-life / Tmax: human, plasma; for AUC(0-t) / AUC(0-inf) / Cmax / half-life: oral; for Tmax: po
Method: A randomized, double-blind, placebo-controlled Phase 1 trial (ClinicalTrials.gov identifier: NCT05484414) (02/08/2022) was conducted to assess the safety, tolerability, food effect, pharmacokinetics (PK), and pharmacodynamics (PD) of single and multiple ascending doses of SRP-001 (Quotient Sciences, Miami FL USA; Fig. 3h - k and Methods). The trial was conducted in accordance with the International Council for Harmonisation of Technical Requirements for Pharmaceuticals for Human Use (ICH), Guideline for GCP: Consolidated Guidance (E6), attained Institutional Review Board approval, and all applicable regulatory requirements for Phase 1, First in Human clinical trials. Safety measurements and plasma samples to determine PK parameters were collected throughout the study for all subjects and reviewed by the Safety Review Committee. PK stopping criteria were established to assure that systemic exposure to SRP-001 was less than or equal to the systemic exposure achieved at the NOAEL doses in the 28-day repeat-dose toxicology studies in the rat and dog. The trial’s Safety Advisory Committee has approved the publication of the Phase 1 results.
SRP-001 was administered as an oral nanosuspension to 56 healthy volunteers across five Single Ascending Dose (SAD) and two Multiple Ascending Dose (MAD) cohorts, with 42 subjects receiving SRP-001 and 14 receiving a placebo.
A two-part randomized, double-blind, placebo-controlled Phase 1 trial was conducted to assess the safety, tolerability, PK and PD of SRP-001 ascending doses (Quotient Sciences, Miami, FL, USA). The study was conducted in accordance with the International Council for Harmonisation of Technical Requirements for Pharmaceuticals for Human Use (ICH), Guideline for GCP: Consolidated Guidance (E6), and applicable regulatory requirements(s) including clinical research guidelines established by the Basic Principles defined in the U.S. 21 CFR Parts 50, 56, and 312 and the principles enunciated in the Declaration of Helsinki (revised version Fortaleza 2013). The clinical protocol and informed consent form were reviewed and approved by an Institutional Review Board (IRB; Advarra IRB, 6100 Merriweather Drive, Suite 600, Columbia, MD 21,044; Quotient Protocol No. SRP-101 and Quotient Sciences Study No. QSC205130; Quotient Sciences Miami, 3898 NW 7th Street, Miami, FL 33,126.). The study comprises a SAD (Part 1) assessment that includes a food effect assessment that contributes data to inform a subsequent MAD (Part 2) dose-ranging study. Safety measurements were collected throughout the study for all subjects. Blood samples were collected to determine the PK parameters of SRP-001 (ClinicalTrials.gov identifier: NCT05484414) (02/08/2022).
NHVs were dosed in the fasted state. The calorie/fat content of meals was not required to be controlled. Subjects were provided with a standardized menu. Subjects were provided with a light snack and then fasted from all food and drink (except water) for a minimum of 10 h on the day prior to dosing until approximately 4 h post-dose, at which time lunch was provided. An evening meal was provided at approximately 10 h post-dose/post-morning dose and an evening snack at approximately 14 h post-morning dose. Food effect was studied in the cohort receiving 900 mg SRP-001 in the fed state. A standard high-fat breakfast was given 30 min before dosing. On Day -1, these NHVs were provided with a light snack and fasted from all food and drink (except water) until the following morning, when they were provided with a standard high-fat breakfast. The breakfast had to be consumed over a maximum period of 25 min, with dosing occurring 30 min after the start of breakfast. Subjects were encouraged to eat their meal evenly over the 25 min period. It was acknowledged that some subjects took less time to eat, but dosing still occurred 30 min after the start of breakfast. Subjects had to consume at least 90% to be eligible for dosing. […]

[1] = 300 mg, Cohort 1, Regimen A, Fasted, geometric mean (geometric CV%)
[2] = 600 mg, Cohort 2, Regimen B, Fasted, geometric mean (geometric CV%)
[3] = 900 mg, Cohort 3, Regimen C, Fasted, geometric mean (geometric CV%)
[4] = 900 mg, Cohort 3, Regimen D, Fed, geometric mean (geometric CV%)
[5] = 2000 mg, Cohort 4, Regimen E, Fasted, geometric mean (geometric CV%)
[6] = relative bioavailability, Cohort 4, Regimen E, text b207 under 900 mg fed state

For `CCN(CC)C(=O)c1ccccc1S(=O)(=O)NCC(=O)Nc1ccc(O)cc1` [SRP-001, N,N-diethyl-2-[[2-(4-hydroxyanilino)-2-oxo-ethyl]sulfamoyl]benzamide], which “Geometric mean AUC(0–24) as share of the exposure limits defined in the protocol” value (2000 mg, fasted) is on record?
The value was 31%.

What about the “Geometric mean Cmax as share of the exposure limits defined in the protocol” value (2000 mg, fasted) of the same molecule?
The value was 34%.

And the “Dose proportionality of geometric mean Cmax and AUC(0-∞)” value (300 to 2000 mg)?
The value was “dose-proportional or super-proportional increase”.

What about the “T1/2 (h)” value (Cohort 1, Regimen A, 300 mg, Fasted, geometric mean (geometric CV%)) of the same molecule?
Its value is 2.38 (65.9) h.

What about the “Tmax (h)” value (Cohort 2, Regimen B, 600 mg oral suspension, Fasted) of the same molecule?
Its value is 1 (1.00–2.00) h.

And the “T1/2 (h)” value (Cohort 2, Regimen B, 600 mg, Fasted, geometric mean (geometric CV%))?
Its value is 5.04 (107.8) h.

And the “Tmax (h)” value (Cohort 3, Period 2: Regimen D, 900 mg oral suspension, Fed)?
The value was 1 (1.00–8.00) h.

What about the “T1/2 (h)” value (Cohort 3, Regimen C, 900 mg, Fasted, geometric mean (geometric CV%)) of the same molecule?
Its value is 3.26 (62.1) h.

What about the “T1/2 (h)” value (Cohort 3, Regimen D, 900 mg, Fed, geometric mean (geometric CV%)) of the same molecule?
Its value is 3.79 (74.5) h.

And the “Tmax (h)” value (Cohort 4, Regimen E, 2000 mg oral suspension, Fasted)?
The value was 1 (1.00–2.00) h.

And the “T1/2 (h)” value (Cohort 4, Regimen E, 2000 mg, Fasted, geometric mean (geometric CV%))?
Its value is 5.96 (65.9) h.

What about the “Increase of geometric mean AUC(0–24)” value (dose from 300 to 600 mg) of the same molecule?
The value was 3.5 fold.

And the “Increase of geometric mean Cmax” value (dose from 300 to 600 mg)?
Its value is 2.6 fold.

What about the “Increase of geometric mean AUC(0–24)” value (dose from 600 to 900 mg) of the same molecule?
Its value is 1.2 fold.

And the “Increase of geometric mean Cmax” value (dose from 600 to 900 mg)?
The value was 1.6 fold.

What about the “Increase of geometric mean Cmax” value (dose from 900 to 2000 mg (2.2-fold increase in dose)) of the same molecule?
The value was 1.7 fold.

What about the AUC(0-t) (300 mg, Cohort 1, Regimen A, 300 mg, Fasted, geometric mean (geometric CV%), read-out: AUC0-24) of the same molecule?
The AUC(0-t) was 1620 ng·h/mL.

And the AUC(0-t) (300 mg, Cohort 1, Regimen A, 300 mg, Fasted, geometric mean (geometric CV%), read-out: AUC0-last)?
Its AUC(0-t) is 1320 ng·h/mL.

What about the AUC(0-inf) [1] of the same molecule?
Its AUC(0-inf) is 1630 ng·h/mL.

What about the Cmax [1] of the same molecule?
The Cmax was 665 ng/mL.

What about the half-life [1] of the same molecule?
Its half-life is 2.4 h.

What about the AUC(0-t) (300 mg, fasted, geometric mean, read-out: AUC(0–48)) of the same molecule?
Its AUC(0-t) is 1630 ng·h/mL.

What about the AUC(0-t) (600 mg, Cohort 2, Regimen B, 600 mg, Fasted, geometric mean (geometric CV%), read-out: AUC0-24) of the same molecule?
The AUC(0-t) was 5660 ng·h/mL.

What about the AUC(0-t) (600 mg, Cohort 2, Regimen B, 600 mg, Fasted, geometric mean (geometric CV%), read-out: AUC0-last) of the same molecule?
The AUC(0-t) was 4940 ng·h/mL.

What about the AUC(0-inf) [2] of the same molecule?
Its AUC(0-inf) is 5840 ng·h/mL.

What about the Cmax [2] of the same molecule?
The Cmax was 1740 ng/mL.

And the half-life [2]?
Its half-life is 5 h.

What about the AUC(0-t) (900 mg, Cohort 3, Regimen C, 900 mg, Fasted, geometric mean (geometric CV%), read-out: AUC0-24) of the same molecule?
Its AUC(0-t) is 6870 ng·h/mL.

What about the AUC(0-t) (900 mg, Cohort 3, Regimen C, 900 mg, Fasted, geometric mean (geometric CV%), read-out: AUC0-last) of the same molecule?
Its AUC(0-t) is 6810 ng·h/mL.

What about the AUC(0-inf) [3] of the same molecule?
The AUC(0-inf) was 6970 ng·h/mL.

And the Cmax [3]?
The Cmax was 2700 ng/mL.

And the half-life [3]?
The half-life was 3.3 h.

What about the AUC(0-t) (900 mg, Cohort 3, Regimen D, 900 mg, Fed, geometric mean (geometric CV%), read-out: AUC0-24) of the same molecule?
The AUC(0-t) was 6250 ng·h/mL.

What about the AUC(0-t) (900 mg, Cohort 3, Regimen D, 900 mg, Fed, geometric mean (geometric CV%), read-out: AUC0-last) of the same molecule?
The AUC(0-t) was 6130 ng·h/mL.

And the AUC(0-inf) [4]?
The AUC(0-inf) was 5910 ng·h/mL.

What about the Cmax [4] of the same molecule?
Its Cmax is 1200 ng/mL.

And the half-life [4]?
Its half-life is 3.8 h.

What about the AUC(0-t) (2000 mg, Cohort 4, Regimen E, 2000 mg, Fasted, geometric mean (geometric CV%), read-out: AUC0-24) of the same molecule?
Its AUC(0-t) is 18900 ng·h/mL.

And the AUC(0-t) (2000 mg, Cohort 4, Regimen E, 2000 mg, Fasted, geometric mean (geometric CV%), read-out: AUC0-last)?
The AUC(0-t) was 19100 ng·h/mL.

What about the AUC(0-inf) [5] of the same molecule?
Its AUC(0-inf) is 19600 ng·h/mL.

And the Cmax [5]?
The Cmax was 4590 ng/mL.

What about the half-life [5] of the same molecule?
Its half-life is 6 h.

And the Tmax (300 mg, Cohort 1, Regimen A, 300 mg oral suspension, Fasted)?
Its Tmax is 1 h.

What about the Tmax (600 mg, Cohort 2, Regimen B, 600 mg oral suspension, Fasted) of the same molecule?
The Tmax was 1 to 2 h.

What about the Tmax (900 mg, Cohort 3, Period 1: Regimen C, 900 mg oral suspension, Fasted) of the same molecule?
Its Tmax is 1 h.

And the Tmax (900 mg, Cohort 3, Period 2: Regimen D, 900 mg oral suspension, Fed)?
Its Tmax is 1 to 8 h.

What about the Tmax (2000 mg, Cohort 4, Regimen E, 2000 mg oral suspension, Fasted) of the same molecule?
Its Tmax is 1 to 2 h.

What about the “Frel AUC(0- last) (%)” value [6] of the same molecule?
The value was 98.4% and 98.4a (16.3) %.

And the “Frel AUC(0-inf) (%)” value [6]?
Its value is 101% and 101a (20.3) %.

What about the “Frel AUC(0–24) (%)” value [6] of the same molecule?
The value was 99.2% and 99.2a (19.0) %.

What about the “Frel Cmax (%)” value [6] of the same molecule?
Its value is 48.4% and 48.4a (21.9) %.
